Experimental data published in patent US7078428B2, “Isoindolone derivatives, preparation process and intermediates of this process, their use as medicaments, and pharmaceutical compositions comprising them” (Sanofi-Aventis Deutschland GmbH, priority 2002, dated 2006).
Several values for one entry are separate records, joined by “and”; a condition that tells them apart may be missing. Equal entries are not always repeated. Structures can show the parent of a compound that is named as a salt.

Target: T1, NHE1 (Homo sapiens, UniProt P19634)
T1 construct: expressed in transfected cells
Assay: NHE inhibition FLIPR test (intracellular pH recovery, BCECF) in transfected LAP-1 cells
Type: cell-based
Conditions: transfected cell line (parental LAP-1) expressing the NHE-1 subtype, pHi recovery after acidification
Experimental: The NHE inhibitory activities (IC50 values) of the compounds according to the invention were determined by a FLIPR test.
The test is performed in the FLIPR (Fluorescent Imaging Plate Reader) equipped with clear-bottomed and black-walled 96-well microtitration plates.
The growth medium for the transfected cells (Iscove +10% foetal calf serum) also comprises G418 as selection antibiotic to ensure the presence of transfected sequences.
The actual test begins by eliminating the growth medium and adding 100 μl of loading buffer per well (5 μM of BCECF-AM [2′,7′-bis(2-carboxyethyl)-5-(6)-carboxyfluoresceine acetoxymethyl ester] in 20 mM of NH4Cl, 115 mM of choline chloride, 1 mM of CaCl2, 5 mM of KCl, 20 mM of HEPES and 5 mM of glucose; pH 7.4 (adjusted with KOH). The cells are then incubated for 20 minutes at 37° C. This incubation results in the loading of the fluorescent dye into the cells, the fluorescence intensity of which depends on the pHi, and on the NH4Cl, which results in a slight basification of the cells.
The precursor BCECF-AM, a non-fluorescent dye, is, as an ester, capable of crossing the membrane. The actual dye, which is incapable of crossing the membrane, is released inside the cell by esterases.
After this 20-minute incubation, the loading buffer, which comprises NH4Cl and free BCECF-AM, is removed by washing three times in the cell washing device (Tecan Columbus), each wash being performed with 400 μl of washing buffer (133.8 mM of choline chloride, 4.7 mM of KCl, 1.25 mM of MgCl2, 1.25 mM of CaCl2, 0.97 mM of K2HPO4, 0.23 mM of KH2PO4, 5 mM of HEPES and 5 mM of glucose; pH 7.4 (adjusted with KOH)). The residual volume remaining in the wells is 90 μl (possibly between 50 and 125 μl). This washing step removes the free BCECF-AM and results in an intracellular acidification (pHi of 6.3-6.4) due to the removal of the external ammonium ions.
As the equilibrium of the intracellular ammonium with the aqueous ammonia and the protons, by removal of the extracellular ammonium and by the subsequent immediate crossing of the aqueous ammonia across the cell membrane, is disrupted, the washing process results in intracellular protons remaining, which is the cause of the intracellular acidification. This acidification can result finally in the death of the cells if it lasts long enough. It is important here for the washing buffer to be free of sodium (<1 mM), otherwise the extracellular sodium ions would result in an immediate increase in the pHi on account of the activity of the cloned NHE isoforms. It is also important for all the buffers used (loading buffer, washing buffer and regeneration buffer) not to contain any HCO3-ions, otherwise the presence of bicarbonate would result in the activation of bicarbonate-dependent systems that disrupt the pHi regulation, which systems are contained in the LAP-1 parental cell line.
The microtiter plates containing acidified cells are then transferred (up to 20 minutes after the acidification) to the FLIPR. In the FLIPR, the intracellular fluorescent dye is activated with light of a wavelength of 488 nm, which is generated by an argon laser, and the measuring parameters (laser power, illumination time and diaphragm of the […] camera integrated into the FLIPR) are chosen such that the average value of the fluorescent signal per well is between 30,000 and 35,000 relative fluorescence units.
The actual measurement in the FLIPR starts with a photograph being taken by the CCD camera every two seconds under software control. After 10 seconds, the increase in the intracellular pH is initiated by adding 90 μl of regeneration buffer (133.8 mM of NaCl, 4.7 mM of KCl, 1.25 mM of MgCl2, 1.25 mM of CaCl2, 0.97 mM of K2HPO4, 0.23 mM of KH2PO4, 10 mM of HEPES and 5 mM of glucose; pH 7.4 (adjusted with NaOH)) using a 96-well pipette device incorporated into the FLIPR. Some wells, to which is added pure regeneration buffer, serve as positive controls (100% NHE activity). […]

T1 sequence (P19634 whole entry, species assumed): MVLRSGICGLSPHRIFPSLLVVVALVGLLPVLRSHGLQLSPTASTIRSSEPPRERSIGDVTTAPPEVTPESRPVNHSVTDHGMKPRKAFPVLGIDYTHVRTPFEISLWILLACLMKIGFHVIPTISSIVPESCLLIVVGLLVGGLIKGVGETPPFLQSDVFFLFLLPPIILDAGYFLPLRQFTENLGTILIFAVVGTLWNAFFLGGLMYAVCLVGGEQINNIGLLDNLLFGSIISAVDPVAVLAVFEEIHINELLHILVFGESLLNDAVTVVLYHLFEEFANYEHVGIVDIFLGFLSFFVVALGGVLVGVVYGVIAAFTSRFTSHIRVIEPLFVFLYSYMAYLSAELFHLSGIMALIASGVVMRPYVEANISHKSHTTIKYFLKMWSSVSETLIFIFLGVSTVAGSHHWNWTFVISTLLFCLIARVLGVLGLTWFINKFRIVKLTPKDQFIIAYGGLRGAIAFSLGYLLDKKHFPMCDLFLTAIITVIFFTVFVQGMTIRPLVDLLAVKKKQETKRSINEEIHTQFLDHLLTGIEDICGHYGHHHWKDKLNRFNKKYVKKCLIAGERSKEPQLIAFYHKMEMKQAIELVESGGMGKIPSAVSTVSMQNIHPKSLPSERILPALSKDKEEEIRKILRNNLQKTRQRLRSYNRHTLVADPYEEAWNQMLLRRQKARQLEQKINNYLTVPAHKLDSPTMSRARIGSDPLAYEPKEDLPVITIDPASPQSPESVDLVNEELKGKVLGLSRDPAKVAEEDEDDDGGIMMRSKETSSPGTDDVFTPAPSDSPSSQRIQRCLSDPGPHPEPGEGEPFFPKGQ

| IC50 | SMILES |
| --- | --- |
| 29 nM | N=C(N)NC(=O)CC1c2cc(F)c(F)cc2C(=O)N1CCC(F)(F)F (racemic) [Example 40, (R)-N-{2-[5,6-Difluoro-3-oxo-2-(3,3,3-trifluoro-propyl)-2,3-dihydro-1H-isoindol-1-yl]-acetyl}-guanidine and (S)-N-{2-[5,6-Difluoro-3-oxo-2-(3,3,3-trifluoro-propyl)-2,3-dihydro-1H-isoindol-1-yl]-acetyl}-guanidine] |
| 18 nM | [H]/N=C(\N)NC(=O)CC1c2cc(Cl)c(Cl)cc2C(=O)N1CC1CC1 (racemic) [Example 42, (R)-N-[2-(5,6-Dichloro-2-cyclopropylmethyl-3-oxo-2,3-dihydro-1H-isoindol-1-yl)-acetyl]-guanidine and (S)-N-[2-(5,6-Dichloro-2-cyclopropylmethyl-3-oxo-2,3-dihydro-1H-isoindol-1-yl)-acetyl]-guanidine] |
| 30 nM | NC(N)=NC(=O)CC1c2cc(Cl)c(Cl)cc2C(=O)N1C1CC1 (racemic) [Example 43, (R)-N-[2-(5,6-Dichloro-2-cyclopropyl-3-oxo-2,3-dihydro-1H-isoindol-1-yl)-acetyl]-guanidine and (S)-N-[2-(5,6-Dichloro-2-cyclopropyl-3-oxo-2,3-dihydro-1H-isoindol-1-yl)-acetyl]-guanidine] |
| 3600 nM and 4700 nM | CC(C(=O)NC(=N)N)C1c2ccccc2C(=O)N1CCO (single isomer, unassigned) [Example 33] |
| 524 nM | [H]/N=C(\N)NC(=O)CC1c2cc(S(C)(=O)=O)ccc2C(=O)N1CC(F)(F)F (single isomer, unassigned) [Example 36a] |
| 6 nM | [H]/N=C(\N)NC(=O)CC1c2cc(S(C)(=O)=O)ccc2C(=O)N1CC(F)(F)F (single isomer, unassigned) [Example 36b] |
| 249 nM | NC(N)=NC(=O)CC1c2cc(C(F)(F)F)ccc2C(=O)N1CC1CC1 (single isomer, unassigned) [Example 38a] |
| 5 nM | NC(N)=NC(=O)CC1c2cc(C(F)(F)F)ccc2C(=O)N1CC1CC1 (single isomer, unassigned) [Example 38b] |
| 263 nM | N=C(N)NC(=O)CC1c2cc(F)c(F)cc2C(=O)N1CCC(F)(F)F (single isomer, unassigned) [Example 40a] |
| 63 nM | N=C(N)NC(=O)CC1c2cc(F)c(F)cc2C(=O)N1CCC(F)(F)F (single isomer, unassigned) [Example 40b] |
| 41 nM | [H]/N=C(\N)NC(=O)CC1c2cc(Cl)c(Cl)cc2C(=O)N1CCC(F)(F)F (single isomer, unassigned) [Example 41b] |
| 19 nM | [H]/N=C(\N)NC(=O)CC1c2cc(Cl)c(Cl)cc2C(=O)N1CCC(F)(F)F (single isomer, unassigned) [Example 41c] |
| 66 nM | [H]/N=C(\N)NC(=O)CC1c2cc(Cl)c(Cl)cc2C(=O)N1CC1CC1 (single isomer, unassigned) [Example 42a] |
| 3 nM | [H]/N=C(\N)NC(=O)CC1c2cc(Cl)c(Cl)cc2C(=O)N1CC1CC1 (single isomer, unassigned) [Example 42b] |
| 53 nM | NC(N)=NC(=O)CC1c2cc(Cl)c(Cl)cc2C(=O)N1C1CC1 (single isomer, unassigned) [Example 43a] |
| 442 nM | NC(N)=NC(=O)CC1c2cc(Cl)c(Cl)cc2C(=O)N1C1CC1 (single isomer, unassigned) [Example 43b] |
| 13 nM | NC(N)=NC(=O)CC1c2cc(Cl)c(Cl)cc2C(=O)N1CC(F)(F)F (single isomer, unassigned) [Example 44b] |
| 260 nM | NC(N)=NC(=O)CC1c2cc(Cl)c(Cl)cc2C(=O)N1CC(F)(F)F (single isomer, unassigned) [Example 44c] |
| 19 nM | NC(N)=NC(=O)CC1c2cc(C(F)(F)F)ccc2C(=O)N1CC(F)(F)F (single isomer, unassigned) [Example 46a] |
| 0.2 nM | NC(N)=NC(=O)CC1c2cc(C(F)(F)F)ccc2C(=O)N1CC(F)(F)F (single isomer, unassigned) [Example 46b] |

| IC50 | SMILES |
| --- | --- |
| 70 nM | NC(N)=NC(=O)CC1c2ccc(C(F)(F)F)cc2C(=O)N1CC(F)(F)F (single isomer, unassigned) [Example 47a] |
| 5790 nM | NC(N)=NC(=O)CC1c2ccc(C(F)(F)F)cc2C(=O)N1CC(F)(F)F (single isomer, unassigned) [Example 47b] |
| 0.2 nM | NC(N)=NC(=O)CC1c2cc(C(F)(F)F)ccc2C(=O)N1CC(F)(F)F (single isomer, unassigned) [Example 48, N-{2-[3-Oxo-2-(2,2,2-trifluoro-ethyl)-6-trifluoromethyl-2,3-dihydro-1H-isoindol-1-yl]-acetyl}-guanidine hydrogen fumarate] |
| 1 nM | NC(N)=NC(=O)CC1c2cc(Cl)ccc2C(=O)N1CCC(F)(F)F (single isomer, unassigned) [Example 49a] |
| 13 nM | NC(N)=NC(=O)CC1c2cc(Cl)ccc2C(=O)N1CCC(F)(F)F (single isomer, unassigned) [Example 49b] |
| 9 nM | NC(N)=NC(=O)CC1c2ccc(Cl)cc2C(=O)N1CCC(F)(F)F (single isomer, unassigned) [Example 50a] |
| 6 nM | NC(N)=NC(=O)CC1c2ccc(Cl)cc2C(=O)N1CCC(F)(F)F (single isomer, unassigned) [Example 50b] |
| 6 nM | NC(N)=NC(=O)CC1c2cc(C(F)(F)F)ccc2C(=O)N1CCC(F)(F)F (single isomer, unassigned) [Example 51a] |
| 171 nM | NC(N)=NC(=O)CC1c2cc(C(F)(F)F)ccc2C(=O)N1CCC(F)(F)F (single isomer, unassigned) [Example 51b] |
| 50 nM | NC(N)=NC(=O)CC1c2ccc(C(F)(F)F)cc2C(=O)N1CCC(F)(F)F (single isomer, unassigned) [Example 52a] |
| 671 nM | NC(N)=NC(=O)CC1c2ccc(C(F)(F)F)cc2C(=O)N1CCC(F)(F)F (single isomer, unassigned) [Example 52b] |
| 83 nM | NC(N)=NC(=O)CC1c2cc(Cl)ccc2C(=O)N1CCCC(F)(F)F (single isomer, unassigned) [Example 53a] |
| 16 nM | NC(N)=NC(=O)CC1c2cc(Cl)ccc2C(=O)N1CCCC(F)(F)F (single isomer, unassigned) [Example 53b] |
| 944 nM | NC(N)=NC(=O)CC1c2ccc(Cl)cc2C(=O)N1CCCC(F)(F)F (single isomer, unassigned) [Example 54a] |
| 48 nM | NC(N)=NC(=O)CC1c2ccc(Cl)cc2C(=O)N1CCCC(F)(F)F (single isomer, unassigned) [Example 54b] |
| 2 nM | NC(N)=NC(=O)CC1c2cc(Cl)ccc2C(=O)N1CC1CC1 (single isomer, unassigned) [Example 55a] |
| 20 nM | NC(N)=NC(=O)CC1c2cc(Cl)ccc2C(=O)N1CC1CC1 (single isomer, unassigned) [Example 55b] |
| 28 nM | NC(N)=NC(=O)CC1c2ccc(Cl)cc2C(=O)N1CC1CC1 (single isomer, unassigned) [Example 56a] |
| 18 nM | NC(N)=NC(=O)CC1c2ccc(Cl)cc2C(=O)N1CC1CC1 (single isomer, unassigned) [Example 56b] |
| 57 nM | CC(C)CN1C(=O)c2ccccc2C1CC(=O)N=C(N)N (single isomer, unassigned; (+)) [Example 4, (+)-N-[2-(2-Isobutyl-3-oxo-2,3-dihydro-1H-isoindol-1-yl)acetyl]guanidine] |
